Measurements reported in patent US9346761B2, “Arginine methyltransferase inhibitors and uses thereof” (Epizyme, Inc., priority 2013, dated 2016).
Structures can show the parent of a compound that is named as a salt. Where two headings read alike, the source gives them in different places.

How the values were obtained:
[1] = test system: mono-methyl arginine in RKO cells; experiment: RKO methylation assay, In Cell Western for mono-methyl arginine and DNA content; format: cell-based; conditions: Homo sapiens
Full-length human PRMT8 = target: T1, Full-length human PRMT8 (Homo sapiens, UniProt Q9NR22); experiment: PRMT8 biochemical assay (3H-SAM Flashplate, peptide substrate)
T1 construct: Full-length human PRMT8 (NM_019854.4) isoform 1 transcript clone; made in house
Excerpt: General Materials. S-adenosylmethionine (SAM), S-adenosylhomocysteine (SAH), bicine, Tween20, dimethylsulfoxide (DMSO), bovine skin gelatin (BSG), isopropyl-β-D-thiogalactopyranoside (IPTG), and Tris(2-carboxyethyl)phosphine hydrochloride solution (TCEP) were purchased from Sigma-Aldrich at the highest level of purity possible. ^3H-SAM was purchase from American Radiolabeled Chemicals with a specific activity of 80 Ci/mmol. 384-well streptavidin Flashplates were purchased from PerkinElmer.
Substrates. Peptide representative of human histone H4 residues 31-45 was synthesized with an N-terminal linker-affinity tag motif and a C-terminal amide cap by 21st Century Biochemicals.
Protein Expression. E. coli (BL21(DE3) Gold, Stratagene) made competent by the CaCl2 method were transformed with the PRMT8 construct and ampicillin selection. Protein over-expression was accomplished by growing the PRMT8 expressing E. coli clone and inducing expression with 0.3 mM IPTG at 16° C. The culture was grown for 12 hours, harvested by centrifugation, and stored at −80° C. for purification.
Protein Purification. […] GST-tagged PRMT8 was eluted with 50 mM Tris, 2 mM glutathione, pH 7.8. Pooled fractions were cleaved by thrombin (10 U) and dialysed in buffer A. GST was removed by reloading the cleaved protein sample onto glutathione sepharose column and PRMT8 was collected in the flow-through fractions. PRMT8 was purified further by ceramic hydroxyapatite chromatography. The column was washed with 50 mM phosphate buffer, 100 mM NaCl, 5% glycerol, 5 mM β-mercaptoethanol, pH 7.8 and PRMT8 was eluted by 100 mM phosphate in the same buffer. Protein was concentrated and buffer was exchanged to 50 mM Tris, 300 mM NaCl, 10% glycerol, 5 mM β-mercaptoethanol, pH 7.8 by ultrafiltration.
General Procedure for PRMT8 Enzyme Assays on Peptide Substrates. The assays were all performed in a buffer consisting of 20 mM Bicine (pH=7.6), 1 mM TCEP, 0.005% BSG, and 0.002% Tween 20, prepared on the day of use. […] DMSO (1 ul) was added to Columns 11, 12, 23, 24, rows A-H for the maximum signal control and 1 ul of SAH, a known product and inhibitor of PRMT8, was added to columns 11, 12, 23, 24, rows I-P for the minimum signal control. A cocktail (40 ul) containing the PRMT8 enzyme was added by Multidrop Combi (Thermo-Fisher). The compounds were allowed to incubate with PRMT8 for 30 min at room temperature, then a cocktail (10 ul) containing ^3H-SAM and peptide was added to initiate the reaction (final volume=51 ul). […] The assays were stopped by the addition of non-radiolabeled SAM (10 ul) to a final concentration of 400 uM, which dilutes the ^3H-SAM to a level where its incorporation into the peptide substrate is no longer detectable. 50 ul of the reaction in the 384-well polypropylene plate was then transferred to a 384-well Flashplate and the biotinylated peptides were allowed to bind to the streptavidin surface for at least 1 hour before being washed once with 0.1% Tween20 in a Biotek ELx405 plate washer. The plates were then read in a PerkinElmer TopCount plate reader to measure the quantity of ^3H-labeled peptide bound to the Flashplate surface, measured as disintegrations per minute (dpm) or alternatively, referred to as counts per minute (cpm).
Where dpm=disintegrations per minute, cmpd=signal in assay well, and min and max are the respective minimum and maximum signal controls.
Where top and bottom are the normally allowed to float, but may be fixed at 100 or 0 respectively in a 3-parameter fit. The Hill Coefficient normally allowed to float but may also be fixed at 1 in a 3-parameter fit. Y is the % inhibition and X is the compound concentration.

[2] = In Cell Western, RKO cells, 72 hours, percent activation of mono-methyl arginine signal, read-out: EC30

T1 sequence (Q9NR22 whole entry, canonical isoform): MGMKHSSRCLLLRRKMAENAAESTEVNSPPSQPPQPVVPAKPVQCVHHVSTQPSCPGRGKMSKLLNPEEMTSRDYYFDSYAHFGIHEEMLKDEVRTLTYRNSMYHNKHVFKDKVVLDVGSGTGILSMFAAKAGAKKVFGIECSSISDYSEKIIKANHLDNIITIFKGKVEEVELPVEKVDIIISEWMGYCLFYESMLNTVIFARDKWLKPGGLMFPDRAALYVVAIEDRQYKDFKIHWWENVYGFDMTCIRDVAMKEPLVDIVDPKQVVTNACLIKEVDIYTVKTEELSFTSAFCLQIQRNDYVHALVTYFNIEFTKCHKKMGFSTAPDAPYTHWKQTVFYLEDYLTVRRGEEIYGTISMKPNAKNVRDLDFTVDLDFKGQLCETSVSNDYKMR

| SMILES | EC30 [1, 2] [µM] | IC50 (Full-length human PRMT8) [µM] | EC30 ([1]; RKO, 72 h) [µM] |
| --- | --- | --- | --- |
| CNCCN(C)Cc1cn(C2CC2)nc1-c1ccc(F)cc1 [Compound 13] | > 12 | > 10 |  |
| CNCCN(C)Cc1cnn(C2CC2)c1-c1ccc(F)cc1 [Compound 14] | 3.01 to 12 | 1.01 to 3 |  |
| CNCCN(C)Cc1cn(C(C)C)nc1-c1ccc(F)cc1 [Compound 15] | > 12 | > 10 |  |
| CNCCN(C)Cc1cnn(C(C)C)c1-c1ccc(F)cc1 [Compound 16] |  | > 10 | > 12 |
| CNCCN(C)Cc1cn[nH]c1-c1ccc(C#N)cc1 [Compound 17] |  | < 0.1 | > 12 |
| CNCCN(C)Cc1cn[nH]c1-c1cc(F)cc(F)c1 [Compound 18] | > 12 | 0.101 to 1 |  |
| CCCc1ccc(-c2n[nH]cc2CN(C)CCNC)cc1 [Compound 20] | < 3 | < 0.1 |  |
| CNCCN(C)Cc1c[nH]nc1-c1cccc([N+](=O)[O-])c1 [Compound 21] | > 12 | 0.101 to 1 |  |
| CNCCN(C)Cc1c[nH]nc1-c1cccc(C#N)c1 [Compound 22] | > 12 | 1.01 to 3 |  |
| CNCCN(C)Cc1c[nH]nc1-c1ccccc1OC [Compound 23] | > 12 | 3.01 to 10 |  |
| CNCCN(C)Cc1c[nH]nc1-c1cccc(OC)c1 [Compound 24] | > 12 | 0.101 to 1 |  |
| CNCCN(C)Cc1c[nH]nc1-c1ccc(OC)cc1 [Compound 25] | > 12 | 0.101 to 1 |  |
| CNCCN(C)Cc1c[nH]nc1-c1cccc(O)c1 [Compound 26] | > 12 | 1.01 to 3 |  |
| CNCCN(C)Cc1c[nH]nc1-c1ccc(O)cc1 [Compound 27] | > 12 | 0.101 to 1 |  |
| CNCCN(C)Cc1c[nH]nc1-c1ccc(CO)cc1 [Compound 28] | 3.01 to 12 | < 0.1 |  |
| CNCCN(C)Cc1c[nH]nc1-c1ccc(C)cc1C [Compound 29] | > 12 | 1.01 to 3 |  |
| CNCCN(C)Cc1cn(CCCC(O)CO)nc1-c1ccc(F)cc1 (stereo not shown) [Compound 30] | > 12 | > 10 |  |
| CNCCN(C)Cc1cnn(CCCC(O)CO)c1-c1ccc(F)cc1 (stereo not shown) [Compound 31] | > 12 | 3.01 to 10 |  |
| CNCCN(C)Cc1c[nH]nc1-c1ccc(N)cc1 [Compound 33] | > 12 | 1.01 to 3 |  |
| CNCCN(C)Cc1c[nH]nc1-c1ccc(Oc2ccccc2)cc1 [Compound 37] | < 3 | < 0.1 |  |
| CNCCN(C)Cc1c[nH]nc1-c1ccccc1C(F)(F)F [Compound 38] | > 12 | 3.01 to 10 |  |
| CNCCN(C)Cc1c[nH]nc1-c1ccccc1OC(F)(F)F [Compound 40] | > 12 | 3.01 to 10 |  |
| CCNC(=O)c1cccc(-c2n[nH]cc2CN(C)CCNC)c1 [Compound 43] | > 12 | 1.01 to 3 |  |
| CNCCN(C)Cc1c[nH]nc1-c1ccc(C(F)(F)F)cc1 [Compound 174] | < 3 | 0.101 to 1 |  |
| CC(C)CC(=O)N1CCN(c2ccc(-c3n[nH]cc3CN(C)CCN)cc2)CC1 [Compound 180] | > 12 | 3.01 to 10 |  |

| SMILES | EC30 [1, 2] [µM] | IC50 (Full-length human PRMT8) [µM] | EC30 ([1]; RKO, 72 h) [µM] |
| --- | --- | --- | --- |
| CNCCN(C)Cc1c[nH]nc1-c1ccc(Cl)c(F)c1 [Compound 182] | < 3 | 0.101 to 1 |  |
| CN(CCNC1CC1)Cc1c[nH]nc1-c1ccc(C#N)cc1 [Compound 183] | > 12 | 3.01 to 10 |  |
| CN(CCN(C)C1CC1)Cc1c[nH]nc1-c1ccc(C#N)cc1 [Compound 184] | < 3 | 3.01 to 10 |  |
| CN(CCN1CCC1)Cc1c[nH]nc1-c1ccc(C#N)cc1 [Compound 185] | > 12 | 3.01 to 10 |  |
| CC(C)Oc1cccc(-c2n[nH]cc2CN(C)CCN)c1 [Compound 187] | 3.01 to 12 | 1.01 to 3 |  |
| CC(C)Oc1cc(-c2n[nH]cc2CN(C)CCN)ccc1F [Compound 188] | > 12 | 1.01 to 3 |  |
| CCC(=O)N1CCN(c2ccc(-c3n[nH]cc3CN(C)CCN)cc2)CC1 [Compound 189] | > 12 | 1.01 to 3 |  |
| CCn1cc(CN(C)CCNC)c(-c2ccc(OC(C)C)cc2)n1 [Compound 213] | > 12 |  |  |
| CNCCN(C)Cc1cn(C2CCCC2)nc1-c1ccc(OC(C)C)cc1 [Compound 214] | > 12 |  |  |
| CNCCN(C)Cc1cn(C2CCOC2)nc1-c1ccc(OC(C)C)cc1 (stereo not shown) [Compound 215] | > 12 |  |  |
| CNCCN(C)Cc1cnn(C2CCOC2)c1-c1ccc(OC(C)C)cc1 (stereo not shown) [Compound 216] | > 12 |  |  |
| CNCCN(C)Cc1cn(Cc2ccccc2)nc1-c1ccc(OC(C)C)cc1 [Compound 217] | > 12 |  |  |
| C=CCn1cc(CN(C)CCNC)c(-c2ccc(OC(C)C)cc2)n1 [Compound 218] | > 12 |  |  |
| C=CCn1ncc(CN(C)CCNC)c1-c1ccc(OC(C)C)cc1 [Compound 219] | > 12 |  |  |
| CNCCN(C)Cc1cn(C)nc1-c1ccc(OC(C)C)cc1 [Compound 243, N1-((3-(4-isopropoxyphenyl)-1-methyl-1H-pyrazol-4-yl)methyl)-N1,N2-dimethylethane-1,2-diamine] | < 3 |  |  |
| CNCCN(C)Cc1cn(Cc2cccnc2)nc1-c1ccc(OC(C)C)cc1 [Compound 246] |  |  | < 3 |
| CNCCN(C)Cc1cn(Cc2ccccn2)nc1-c1ccc(OC(C)C)cc1 [Compound 247] | 3.01 to 12 |  |  |
| CNCCN(C)Cc1cn(CC(=O)OC)nc1-c1ccc(OC(C)C)cc1 [Compound 248] | > 12 |  |  |
| CNCCN(C)Cc1cn(CC(N)=O)nc1-c1ccc(OC(C)C)cc1 [Compound 251] | > 12 |  |  |
| CCn1ncc(CN(C)CCNC)c1-c1ccc(OC(C)C)cc1 [Compound 252] |  |  | < 3 |
| CNCCN(C)Cc1cn(CCOC)nc1-c1ccc(OC(C)C)cc1 [Compound 253, N1-((3-(4-isopropoxyphenyl)-1-(2-methoxyethyl)-1H-pyrazol-4-yl)methyl)-N1,N2-dimethylethane-1,2-diamine hydrochloride] | 3.01 to 12 |  |  |
| CNCCN(C)Cc1cn(C2CCC2)nc1-c1ccc(OC(C)C)cc1 [Compound 254, N1-((1-cyclobutyl-3-(4-isopropoxyphenyl)-1H-pyrazol-4-yl)methyl)-N1,N2-dimethylethane-1,2-diamine hydrochloride] | < 3 |  |  |
| CNCCN(C)Cc1cnn(C2CCCC2)c1-c1ccc(OC(C)C)cc1 [Compound 255] |  |  | < 3 |
| C=C(C)C(=O)Nc1cccc(-c2[nH]ncc2CN(C)CCNC)c1 [Compound 257] | > 12 |  |  |
| C=CC(=O)Nc1cccc(-c2[nH]ncc2CN(C)CCNC)c1 [Compound 258] | > 12 |  |  |
